Where “and” joins values, the source holds several entries; their conditions need not be identical. Equal values may be shown once.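 Protocol summary: plate cells (96-well), add compound at 5 concentrations, incubate 48 h, interpolate endpoints linearly. Abbreviation: GI50, concentration required for 50% inhibition of growth. TGI marks complete inhibition of growth.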
Key:
Assay in all cases: DTP human tumour cell line panel, 48 h
MDA-MB-231 breast = test system: MDA-MB-231 breast
HOP-62 NSCLC = test system: HOP-62 NSCLC
OVCAR-8 ovarian = test system: OVCAR-8 ovarian
SN12C renal = test system: SN12C renal
MOLT-4 leukemia = test system: MOLT-4 leukemia
EKVX NSCLC = test system: EKVX NSCLC
TK-10 renal = test system: TK-10 renal
SW-620 colon = test system: SW-620 colon

Row | Structure (SMILES) | GI50 (MDA-MB-231 breast) | TGI (MDA-MB-231 breast) | GI50 (HOP-62 NSCLC) | TGI (HOP-62 NSCLC) | GI50 (OVCAR-8 ovarian) | TGI (OVCAR-8 ovarian) | GI50 (SN12C renal) | TGI (SN12C renal) | GI50 (MOLT-4 leukemia) | GI50 (EKVX NSCLC) | TGI (EKVX NSCLC) | GI50 (TK-10 renal) | TGI (TK-10 renal) | GI50 (SW-620 colon) | TGI (MOLT-4 leukemia) | TGI (SW-620 colon)
1 | N#CC(C#N)=C/C=C(\Sc1nc2ccccc2s1)c1ccc(Cl)cc1 | 5.87 µM | 22.3 µM | 14 µM | 30.5 µM | 7.53 µM | 25 µM | 7.88 µM | > 53.1 µM | 0.565 µM | 18.4 µM | 40 µM | 6.18 µM | 15 µM | 0.41 µM | – | –
2 | O=C1NC(=NC(CO)Cc2ccccc2)S/C1=C\c1ccc2ncccc2c1 (stereo unspecified) | > 25 µM and 10.3 µM | > 25 µM | > 23.4 µM and 6.05 µM | > 25 µM | > 21.1 µM and 5.24 µM | > 25 µM | 14.9 µM and 3.46 µM | > 25 µM | 12.2 µM and 7.45 µM | – | – | > 23.7 µM and 3.55 µM | > 25 µM | 9.04 µM and 0.927 µM | > 25 µM and 18.7 µM | > 25 µM
3 | C[C@]12CCC3c4ccc(O)cc4CCC3C1CC[C@@]2(O)CNC(=O)/C=C/c1ccc(O)c(O)c1 (stereo partly specified) | 3.58 µM | 16.4 µM | 6.78 µM | 22.6 µM | 2.65 µM | 17.1 µM | 7.54 µM | 20.6 µM | 5.09 µM | 9.97 µM | 29.8 µM | 2.52 µM | 13.7 µM | 9.36 µM | 31.2 µM | 27.2 µM
4 | CC(C)[C@@H]1C=C2CC[C@H]3[C@](C)(CN)CCC[C@]3(C)[C@H]2CC1 | 2.12 µM | 5.47 µM | 3.33 µM | 10.9 µM | 2.28 µM | 5.7 µM | 3.42 µM | 14 µM | 2.35 µM | 7.32 µM | 23.4 µM | 12 µM | 25.3 µM | 1.73 µM | 6.03 µM | 3.23 µM
5 | CCN1C(=O)N(c2ccccc2)C2NC(=S)N(/N=C/C=C/c3ccccc3OC)C21 (stereo unspecified) | 0.0921 µM | 5.13 µM | 0.127 µM | > 58.5 µM | 0.118 µM | > 84.3 µM | 0.139 µM | > 42.2 µM | 0.128 µM | 0.174 µM | > 100 µM | 23.3 µM | > 100 µM | 0.125 µM | > 100 µM | > 100 µM
6 | CN(C)c1cc(NN=C(c2ccc(O)cc2)c2ccc(O)cc2)c([N+](=O)[O-])cc1[N+](=O)[O-] | 4.72 µM | 17.5 µM | 10.5 µM | 26.1 µM | 7.73 µM | 46.5 µM | 10.4 µM | 23.7 µM | 3.37 µM | 5.49 µM | 18.1 µM | 7.35 µM | 22 µM | 11.4 µM | 23.2 µM | 24.2 µM
7 | CCN(Cc1ccc(F)cc1)c1cc(Cl)c(CO)c(Cl)c1 | 13 µM | 26.7 µM | 14 µM | 27.2 µM | 14.3 µM | 31.3 µM | 13.3 µM | 26.8 µM | 16.6 µM | – | – | 2.58 µM | 13.8 µM | 13.7 µM | 44 µM | 30.4 µM
